From ChEMBL document CHEMBL3856215, “Design and synthesis of N-(5-chloro-2,4-dihydroxybenzoyl)-(R)-1,2,3,4-tetrahydroisoquinoline-3-carboxamides as novel Hsp90 inhibitors” (Eur J Med Chem, 2016)
Active and inactive are the calls of the source. The calls are words filed in the database; no cut-off is given here.

Key:
[1] = Antiproliferative activity against human HeLa cells after 72 hrs by SRB assay; assay type: functional, cell-based
[2] = Antiproliferative activity against human MDA-MB-231 cells after 72 hrs by SRB assay; assay type: functional, cell-based; conditions: MDA-MB-231, 72 h
[3] = molecular target: Heat shock protein HSP 90-alpha (Homo sapiens) (UniProt P07900); assay: Induction of thermal stabilization of Hsp90alpha in human 293T cells preincubated for 3 hrs followed by […] at 55 degC and subsequently […] at room temperature by Western blot method; assay type: cell-based
[4] = molecular target: T1, Heat shock protein HSP90 (Homo sapiens) (UniProt P07900+P08238); assay: Inhibition of Hsp90 in human MDA-MB-231 cells assessed as downregulation of C-raf expression after 24 hrs by Western blot analysis; assay type: cell-based
[5] = molecular target: T1, Heat shock protein HSP90 (Homo sapiens); assay: Inhibition of Hsp90 in human MDA-MB-231 cells assessed as downregulation of CDK4 expression after 24 hrs by Western blot analysis; assay type: cell-based
[6] = molecular target: T1, Heat shock protein HSP90 (Homo sapiens); assay: Inhibition of Hsp90 in human MDA-MB-231 cells assessed as downregulation of Cdc-2 expression after 24 hrs by Western blot analysis; assay type: cell-based
[7] = molecular target: Heat shock protein HSP 90-alpha (Homo sapiens) (UniProt P07900); assay: Induction of thermal stabilization of Hsp90alpha in human 293T cells at 10 uM preincubated for 3 hrs followed by […] at 37 to 61 degC and subsequently […] at room temperature by Western blot method; assay type: cell-based
[8] = molecular target: T1, Heat shock protein HSP90 (Homo sapiens); assay: Inhibition of Hsp90 in human MDA-MB-231 cells assessed as upregulation of Hsp70 expression after 24 hrs by Western blot analysis; assay type: cell-based
[9] = molecular target: T1, Heat shock protein HSP90 (Homo sapiens); assay: Inhibition of Hsp90 in human MDA-MB-231 cells assessed as downregulation of Her2 expression after 24 hrs by Western blot analysis; assay type: cell-based

| Structure (SMILES) | IC50 [1] | IC50 [2] | other results |
| --- | --- | --- | --- |
| CCNC(=O)[C@@H]1Cc2ccccc2CN1C(=O)c1cc(Cl)c(O)cc1O | 5.18 µM | 3.88 µM |  |
| O=C(NCc1ccccc1)[C@@H]1Cc2ccccc2CN1C(=O)c1cc(Cl)c(O)cc1O | 4.58 µM | 4.05 µM |  |
| C=CCNC(=O)[C@H]1Cc2ccccc2CN1C(=O)c1cc(Cl)c(O)cc1O | 3.07 µM | 2.15 µM |  |
| O=C(Nc1ccccc1)[C@@H]1Cc2ccccc2CN1C(=O)c1cc(Cl)c(O)cc1O | > 10 µM | > 10 µM |  |
| CCNC(=O)[C@H]1Cc2ccccc2CN1C(=O)c1cc(Cl)c(O)cc1O | 4.57 µM | 4.62 µM |  |
| CNC(=O)[C@@H]1Cc2ccccc2CN1C(=O)c1cc(Cl)c(O)cc1O | > 10 µM | 9.43 µM |  |
| O=C([C@@H]1Cc2ccccc2CN1C(=O)c1cc(Cl)c(O)cc1O)N1CCCCC1 | 8.88 µM | 9.64 µM |  |
| O=C(Nc1ccccc1)[C@H]1Cc2ccccc2CN1C(=O)c1cc(Cl)c(O)cc1O | 2.69 µM | 1.9 µM |  |
| O=C(NC1CCCCC1)[C@@H]1Cc2ccccc2CN1C(=O)c1cc(Cl)c(O)cc1O | 5.42 µM | 7.3 µM |  |
| C=CCNC(=O)[C@@H]1Cc2ccccc2CN1C(=O)c1cc(Cl)c(O)cc1O | 7 µM | 6.74 µM |  |
| O=C(NC1CCCC1)[C@H]1Cc2ccccc2CN1C(=O)c1cc(Cl)c(O)cc1O | 5.42 µM | 3.51 µM |  |
| CC(C)NC(=O)[C@H]1Cc2ccccc2CN1C(=O)c1cc(Cl)c(O)cc1O | 3.08 µM | 2.49 µM |  |
| O=C(NC1CCCCC1)[C@H]1Cc2ccccc2CN1C(=O)c1cc(Cl)c(O)cc1O | 3.55 µM | 2.05 µM |  |
| O=C(NCCc1ccccc1)[C@H]1Cc2ccccc2CN1C(=O)c1cc(Cl)c(O)cc1O | 4.75 µM | 2.65 µM |  |
| COC1=C2C[C@@H](C)C[C@H](OC)[C@H](O)[C@@H](C)/C=C(\C)[C@H](OC(N)=O)[C@@H](OC)/C=C\C=C(/C)C(=O)NC(=CC1=O)C2=O [GELDANAMYCIN] | 0.06 µM | 0.03 µM |  |
| O=C(NCc1ccccc1)[C@H]1Cc2ccccc2CN1C(=O)c1cc(Cl)c(O)cc1O | 1.74 µM | 0.98 µM | Activity [3]: Dose-dependent effect; inhibition [4]: Dose-dependent effect; inhibition [5]: Dose-dependent effect; inhibition [6]: Dose-dependent effect; Activity [7]: Active; inhibition [8]: Dose-dependent effect; inhibition [9]: Dose-dependent effect |
| CCCNC(=O)[C@@H]1Cc2ccccc2CN1C(=O)c1cc(Cl)c(O)cc1O | 7.5 µM | 5.34 µM |  |
| O=C([C@H]1Cc2ccccc2CN1C(=O)c1cc(Cl)c(O)cc1O)N1CCCC1 | 3.97 µM | 1.94 µM |  |
| O=C([C@H]1Cc2ccccc2CN1C(=O)c1cc(Cl)c(O)cc1O)N1CCCCC1 | 3.45 µM | 1.64 µM |  |
| CCN(CC)C(=O)[C@@H]1Cc2ccccc2CN1C(=O)c1cc(Cl)c(O)cc1O | 7.8 µM | 6.2 µM |  |
| CNC(=O)[C@H]1Cc2ccccc2CN1C(=O)c1cc(Cl)c(O)cc1O | 7.62 µM | 9.42 µM |  |
| CC(C)NC(=O)[C@@H]1Cc2ccccc2CN1C(=O)c1cc(Cl)c(O)cc1O | 7.12 µM | 5.81 µM |  |
| CCCNC(=O)[C@H]1Cc2ccccc2CN1C(=O)c1cc(Cl)c(O)cc1O | 3.98 µM | 2.58 µM |  |
| CCN(CC)C(=O)[C@H]1Cc2ccccc2CN1C(=O)c1cc(Cl)c(O)cc1O | 4.91 µM | 2.24 µM |  |
| O=C([C@@H]1Cc2ccccc2CN1C(=O)c1cc(Cl)c(O)cc1O)N1CCCC1 | 9.76 µM | 7.88 µM |  |
| O=C(NC1CCCC1)[C@@H]1Cc2ccccc2CN1C(=O)c1cc(Cl)c(O)cc1O | > 10 µM | > 10 µM |  |
| O=C(NCCc1ccccc1)[C@@H]1Cc2ccccc2CN1C(=O)c1cc(Cl)c(O)cc1O | > 10 µM | 9.05 µM |  |
| C=CCNC1=C2C[C@@H](C)C[C@H](OC)[C@H](O)[C@@H](C)/C=C(\C)[C@H](OC(N)=O)[C@@H](OC)/C=C\C=C(/C)C(=O)NC(=CC1=O)C2=O [TANESPIMYCIN] | 0.2 µM | 0.52 µM |  |
